Assay results as given in PMC10439028, “SGLT5 is the renal transporter for 1,5-anhydroglucitol, a major player in two rare forms of neutropenia” (Cellular and Molecular Life Sciences: CMLS, 2023).

How the values were obtained:
mouse SGLT4 = target: T1, mouse SGLT4 (Mus musculus, UniProt Q8VDT1); assay: Inhibition of 50 µM mannose transport in HEK293T cells expressing mouse SGLT4; assay type: cell-based; conditions: 10 mM 1,5-AG
T1 construct: expressed in transfected cells; host or cells: HEK293T
T1 sequence (Q8VDT1 1-685): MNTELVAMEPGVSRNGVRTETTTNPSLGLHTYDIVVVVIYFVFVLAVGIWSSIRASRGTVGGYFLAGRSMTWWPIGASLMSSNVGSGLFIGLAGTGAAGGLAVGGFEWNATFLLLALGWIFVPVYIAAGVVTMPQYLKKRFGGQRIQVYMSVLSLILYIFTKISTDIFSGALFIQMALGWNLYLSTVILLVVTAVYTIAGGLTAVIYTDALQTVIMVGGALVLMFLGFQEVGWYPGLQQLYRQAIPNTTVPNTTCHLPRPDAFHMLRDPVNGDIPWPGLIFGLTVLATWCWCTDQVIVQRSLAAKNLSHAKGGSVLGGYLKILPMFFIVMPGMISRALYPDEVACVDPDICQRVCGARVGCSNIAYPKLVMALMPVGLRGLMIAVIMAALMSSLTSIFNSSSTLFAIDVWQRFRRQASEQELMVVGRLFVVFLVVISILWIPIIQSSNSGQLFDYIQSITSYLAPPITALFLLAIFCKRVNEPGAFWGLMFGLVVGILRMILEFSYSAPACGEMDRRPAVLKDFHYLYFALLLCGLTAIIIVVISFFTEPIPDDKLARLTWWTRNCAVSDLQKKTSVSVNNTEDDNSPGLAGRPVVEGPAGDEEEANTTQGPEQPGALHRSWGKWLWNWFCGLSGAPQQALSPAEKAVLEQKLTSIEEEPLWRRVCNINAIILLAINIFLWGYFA
Description: Supplementary Fig. 4: Transport activities for 1,5-anhydroglucitol and mannose of recombinant mouse SGLT4 and SGLT5 isoforms measured in HEK293T cells.
Transport was measured in 24 well plates with 0.6x10^6 cells during 30 mins at 37°C in 5% CO2 in the presence of the indicated concentrations of 2-[1H+3H]-1,5-AG for both mSGLT4 (A) and mSGLT5 (B) and U-[12C+14C]-mannose (C) for mSGLT4. The saturation curves for the transport activities and the derived kinetic constants (Km and Vmax) are shown and indicate that mSGLT4 appears to be able to transport 1,5-anhydroglucitol but with a very low affinity (Km > 5 mM – panel A) compared to mannose (Km = 0.2 mM – panel C), while mSGLT5 transports efficiently 1,5-anhydroglucitol (Km = 0.5 mM – panel B). (D) 10 mM 1,5- […]
U-[12C+14C]-mannose) for both the human (hSGLT4) and the mouse (mSGLT4) isoforms of […]
(also on this page, place not known: Transport of (pmol/min/100 cells) Transport of (pmol/min/100 cells) 000 Transport of 1,5-AG (pmol/min/100 000 cells) 000 hSGLT4 mSGLT4 Mannose transport activity (% of the value at [12C+14C]-mannose) 50 µM mannose 1,5-AG)

mouse SGLT5 = target: T2, mouse SGLT5 (Mus musculus, UniProt Q5SWY8); assay: Radioactive uptake assay (saturation kinetics) in HEK293T cells expressing mouse SGLT5; assay type: cell-based
T2 construct: expressed in transfected cells; host or cells: HEK293T
T2 sequence (Q5SWY8 1-596): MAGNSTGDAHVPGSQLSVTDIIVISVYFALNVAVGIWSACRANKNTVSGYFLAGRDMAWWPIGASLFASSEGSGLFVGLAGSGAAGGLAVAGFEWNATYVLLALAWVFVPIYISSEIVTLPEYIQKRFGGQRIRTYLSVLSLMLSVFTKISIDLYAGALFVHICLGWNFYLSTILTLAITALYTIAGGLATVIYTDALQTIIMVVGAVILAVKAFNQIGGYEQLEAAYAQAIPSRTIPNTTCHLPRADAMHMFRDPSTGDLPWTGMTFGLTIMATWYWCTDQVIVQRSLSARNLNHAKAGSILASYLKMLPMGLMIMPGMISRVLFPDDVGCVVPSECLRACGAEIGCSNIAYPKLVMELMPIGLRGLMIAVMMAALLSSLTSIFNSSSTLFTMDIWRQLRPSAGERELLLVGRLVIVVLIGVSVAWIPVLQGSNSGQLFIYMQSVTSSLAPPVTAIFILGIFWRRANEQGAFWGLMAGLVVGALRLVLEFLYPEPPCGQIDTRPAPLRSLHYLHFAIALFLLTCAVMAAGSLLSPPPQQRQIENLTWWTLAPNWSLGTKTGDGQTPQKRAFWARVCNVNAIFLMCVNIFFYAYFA
Description: For a typical transporter experiment we proceeded as follows. […] To minimize cell loss during the various washing steps in the radioactive uptake experiments, the wells where the cells were seeded were previously coated with poly- D-lysine, which improved their adhesion to the plastic surface of the wells. For this, each well of the 24-well plates was treated with 200 µl of a 0.01% poly-L-lysine solution for 10 min, washed 3 times with 1 ml of sterilized water and left to dry for 2 h. Only then could the 24-well plates be seeded with the appropriate cell lines and cultured overnight at 37 °C in 5% CO2.
On day two, the radioactive uptake assay could be performed. […]
Once the uptake medium was added to the cells, the plates were incubated at 37 °C in 5% CO2 during the required time. […] In each experiment, the transport activities were calculated after subtracting a “blank” value, corresponding to the radioactivity in the appropriate control cells (HEK293T cells that were stably or transiently transfected with one of the parent plasmids pEF6/MycHisA, pEF6HisB, pUB82 or pUB83 with no inserted cDNA) that were analyzed in parallel. […]
Supplementary Fig. 4: Transport activities for 1,5-anhydroglucitol and mannose of recombinant mouse SGLT4 and SGLT5 isoforms measured in HEK293T cells. […]

OC[C@H]1OC[C@H](O)[C@@H](O)[C@@H]1O [1,5-AG, 1,5-anhydroglucitol]
inhibition of mouse SGLT4 transport activity (mouse SGLT4): barely inhibited | mSGLT5 Vmax (mouse SGLT5; 30 min, Supplementary Fig. 4): 16 pmol/min/100 000 cells | higher affinity of mouse SGLT5 than mouse SGLT4 for 1,5-AG (mouse SGLT5; mouse SGLT5 versus mouse SGLT4): over tenfold
